# Results: publication PMC8010149, “A Therapeutic Strategy to Combat HIV-1 Latently Infected Cells With a Combination of Latency-Reversing Agents Containing DAG-Lactone PKC Activators” (Frontiers in Microbiology, 2021)
# How the values were obtained:
# [1] = system: PBMCs from healthy donors; assay: Acute cytotoxicity in primary cells (fixable viability dye, flow cytometry); format: cell-based
# Experimental: For T cell activation and exhaustion marker staining, PBMCs from healthy donors separated by the above density gradient centrifugation method were incubated with fixable viability stain Ghost Dye 780 (TONBO Biosciences) for 30 min on ice. […] Next, the cells were analyzed using BD FACSVerse (BD Biosciences). In the analysis, unstained cells were used as a negative control to set the gating for each experiment. The collected data were analyzed using FlowJo software (Tree Star, San Carlos, CA, United States).
# The ratio of living cells was calculated for fixable viability dye negative cell populations by flow cytometry. Data are shown as means ± SDs of three independent experiments.
# [2] = Pharmacokinetics in mice, plasma concentration by LC-MS/MS; format: in vivo; details: BALB/c mice, 10 mg/kg subcutaneous
# Experimental: Blood was drawn from mice at 0.5, 1, 3, 6, 12, and 24 h after subcutaneous administration of YSE028 at a dose of 10 mg/kg. Plasma samples were prepared on ice. Blood was collected in a heparin tube and then separated at 5,000 rpm for 10 min at 4°C. Two hundred microliter of MeOH was added to 40 μl of mouse plasma immediately after plasma collection to terminate the enzymatic hydrolysis of YSE028 during sample preparation. All samples were vortexed for 10s and centrifuged at 12,000 g for 10 min at 4°C. The supernatant was then separated. Alectinib (10 ng/ml) in MeOH was used as an internal standard (IS) and added to the supernatant for liquid chromatography tandem mass spectrometry (LC-MS/MS) analysis.
# A Nexera X2 UHPLC system (Shimadzu, Kyoto, Japan) connected to a QTRAP5500 mass spectrometer (AB SCIEX, Framingham, MA, United States) was used for LC-MS/MS analysis. The separation of YSE028 and alectinib (IS) was performed using an XBridge C18 column (2.1 × 50 mm, 3.5 μm, Waters). The mobile phases consisted of 10 mM ammonium formate (A) and MeOH (B). The run time was 6 min with a flow rate of 0.5 ml/min. The oven temperature was set to 40°C, and the autosampler chamber was maintained at 4°C. The gradient elution program was set as follows: 0–3.0 min, 60–80% B; 3.1 min–4.0 min, 95% B; and 4.1 min–6 min, 60% B. The sample injection volume was 5 μl. The electrospray ionization interface in positive mode was used to perform tandem mass spectrometry (MS/MS). The MRM transition for YSE028 was m/z 313.1→187.1. The MS parameters were optimized as follows: desolvation temperature, 500°C; curtain gas (CUR), 40; collision gas (CAD), 7; ionspray voltage (IS), 4500v; ion source gas (GS1), 50 psi; ion source gas (GS2), 80 psi; declustering potential (DP), 110 v; entrance potential (EP), 10v; collision energy (CE), 13v; collision cell exit potential (CXP), 20v.
# U1 cells = assay: Active caspase-3 by flow cytometry in U1 cells; format: cell-based; details: 10 µM, 24 h
# Experimental: The amount of intracellular HIV-1 p24 and the active form of caspase-3 were determined by flow cytometry, as previously described ([Matsuda et al., 2015], [2019]). In brief, ACH-2 and U1 cells (2.5 × 10^5 cells/ml) were fixed with 1% paraformaldehyde/PBS for 20 min and permeabilized with Flow Cytometry Perm Buffer (TONBO Biosciences, San Diego, CA, United States). After 5 min of incubation at room temperature, the cells were stained with FITC anti-HIV-1 p24 (24-4) monoclonal antibody (mAb; Santa Cruz Biotechnology, Dallas, TX, United States) or Alexa Fluor 647-conjugated anti-active caspase-3 (C92-605) mAb (BD Pharmingen, San Diego, CA, United States) for 30 min on ice. For T cell activation and exhaustion marker staining, PBMCs from healthy donors separated by the above density gradient centrifugation method were incubated with fixable viability stain Ghost Dye 780 (TONBO Biosciences) for 30 min on ice. […] Next, the cells were analyzed using BD FACSVerse (BD Biosciences). […] The collected data were analyzed using FlowJo software (Tree Star, San Carlos, CA, United States).
smiles,measurement,setting,value
CCCC(CCC)C(=O)OCC1(CO)CC(=C(C)C)C(=O)O1 (stereo not drawn) [YSE028],toxicity of LRAs in combination in primary cells,"[1]; YSE028 10 μM with JQ1 1 μM, Supplementary Figure S3A",did not cause increased toxicity in combination
same,acute toxicity in primary cells,"[1]; up to 100 μM, 24 h",did not show acute toxicity
same,time within which the concentration in blood decreased rapidly,[2],≤ 3 h
same,peak concentration (median),[2]; plasma,5.14 ng/mL
same,Tmax,"[2]; mouse, sc, plasma, read-out: time of peak concentration",1 h
same,caspase-3 activation,U1 cells,22.7%
